Assay results taken from publication PMC5686453 (ACS chemical neuroscience, 2017).
Entries after “also recorded” stand apart in the source; their conditions may differ.

Key:
[1] = target: α4-containing GABAA receptors (with β3, γ2L) (Rattus norvegicus, UniProt P18508+P28471, INS375LLRMFSFK); type: cell-based; settings: 1 μM modulator, 0.3 μM GABA
[2] = target: α1β3γ2L GABAA receptor (Rattus norvegicus, UniProt P18508+P62813, INS375LLRMFSFK); type: cell-based; settings: for peak response (potentiation of the response to GABA): α1β3γ2L, percentage of the response to GABA alone
[3] = test system: mice; test: Pilot study of a larger dose; type: in vivo; settings: 32 mg/kg
[4] = target: α5-containing GABAA receptors (with β3, γ2L) (Rattus norvegicus, UniProt P18508+P19969, INS375LLRMFSFK); type: cell-based; settings: 0.1 μM modulator, 0.3 μM GABA
[5] = test system: acetic acid-depressed nesting in mice; test: Acetic acid-depressed nesting; type: in vivo, ICR mice; settings: 60 min nesting period
[6] = test system: 0.6% acetic acid-induced writhing in mice; test: 0.6% acetic acid-induced writhing; type: in vivo, ICR mice; settings: s.c. pretreatment, 25 min observation
[7] = target: α6-containing GABAA receptors (with β3, γ2L) (Rattus norvegicus, UniProt P18508+P30191, INS375LLRMFSFK); type: cell-based; settings: 1 μM modulator, 0.1 μM GABA
[8] = target: α3β3γ2L GABAA receptor (Rattus norvegicus, UniProt P18508+P20236, INS375LLRMFSFK); type: cell-based; settings: for peak response (potentiation of the response to GABA): α3β3γ2L, percentage of the response to GABA alone
[9] = test system: acetic acid-depressed locomotion in mice; test: Acetic acid-depressed locomotor activity; type: in vivo, ICR mice; settings: s.c. pretreatment, 0.6% acetic acid
[10] = test system: 0.32% lactic acid-induced writhing in mice; type: in vivo, ICR mice; settings: s.c. pretreatment, 25 min observation
[11] = test system: lactic acid-depressed locomotion in mice; test: Lactic acid-depressed locomotor activity; parameters: species or system ICR mice; settings: mouse, in vivo
[12] = target: α2β3γ2L GABAA receptor (UniProt P18508+P47869, INS375LLRMFSFK); type: cell-based, human; settings: for peak response (potentiation of the response to GABA): α2β3γ2L, percentage of the response to GABA alone
[13] = test system: spontaneous locomotor activity in naïve mice; test: Baseline locomotor activity without acid; type: in vivo, ICR mice; settings: doses used for the pain studies
[14] = test system: rat models of inflammatory and neuropathic pain; settings: cited from earlier work
[15] = test system: formalin test; settings: only partially effective; cited from earlier work

In the case of `C#Cc1ccc2c(c1)C(c1ccccn1)=NCc1c(-c3cnco3)ncn1-2` [KRM-II-81, 5-(8-ethynyl-6-(pyridin-2-yl)-4H-benzo[f]imidazo[1,5-a][1,4]diazepin-3-yl) oxazole], the “modulation of GABA response at α4-containing receptors (in words)” value [1] is reported as “negligible efficacy”, the EC50 [2] is reported as 1730 ± 690 nM and the “peak response (potentiation of the response to GABA)” value (“peak response” for short) [2] is reported as 316.9 ± 38.6%. For the same compound, the “sedation at a larger dose” value [3] was “marked sedation”, the “modulation of GABA response at α5-containing receptors (in words)” value [4] was “much less sensitive; also recorded: negligible efficacy” and the “effect on the decrease in cleared zones by acetic acid (nesting, in words)” value [5] was “failed to significantly attenuate”. For the same compound, the “effect on 0.6% acetic acid-induced writhing (in words)” value [6] was “dose-dependently decreased”, the “modulation of GABA response at α6-containing receptors (in words)” value [7] was “negligible efficacy” and the EC50 [8] was 60.9 ± 11.6 nM. For the same compound, the “selectivity on α3 subtype over α1 subtype GABAA receptors” value ([8]; from EC50 values) was 28 fold, the “peak response” value [8] was 352.2 ± 38.0% and the “effect on locomotor activity of acetic acid-treated mice (in words)” value [9] was “failed to restore”. The “effect on […] lactic acid-induced writhing (in words)” value [10] was “decreased”, the “effect on locomotor activity of lactic acid-treated mice (in words)” value [11] was “failed to restore” and the EC50 [12] was 102 ± 28.5 nM. For the same compound, the “selectivity on α2 subtype over α1 subtype GABAA receptors” value ([12]; from EC50 values) was 17 fold and the “peak response” value [12] was 350.1 ± 21.5%.
With `CC(=O)Nc1ccc(O)cc1` [acetaminophen, reference compound] the “effect on locomotor activity of acetic acid-treated mice (in words)” value [9] was “dose-dependently increased”, the “effect on locomotor activity of lactic acid-treated mice (in words)” value [11] was “dose-dependently increased” and the “effect on locomotor / spontaneous activity without acid” value [13] was “did not significantly change”.
In the case of `CC(C)(O)c1ccc2c(c1)ncn2-c1cccc(-c2ccccc2C#N)c1` [NS11394, 3′-[5-(1-hydroxy-1-methyl-ethyl)-benzoimidazol-1-yl]-biphenyl-2-carbonitrile], the “antinociceptive effects in rat models of inflammatory and neuropathic pain” value [14] is listed as “significant antinociceptive effects”, the “sedation at the antinociceptive doses” value ([14]; rat, same doses) is listed as “does not produce sedation” and the “reduction in the formalin test” value [15] is listed as 33%.
For `C#Cc1ccc2c(c1)C(c1ccccc1F)=NCc1c(-c3cnco3)ncn1-2` [KRM-II-18B, 5-(8-ethynyl-6-(2-fluorophenyl)-4H-benzo[f]imidazo[1,5-a][1,4]diazepin-3-yl) oxazole], the EC50 [2] was 739 ± 252 nM, the “selectivity among the three subtypes (α1, α2, α3)” value ([2]; in words) was “no significant selectivity” and the “peak response” value [2] was 410.6 ± 26.3%. For the same compound, the “sedation at a larger dose” value [3] was “marked sedation”, the “modulation of GABA response at α5-containing receptors (in words)” value [4] was “significant efficacy” and the “effect on the decrease in cleared zones by acetic acid (nesting, in words)” value [5] was “failed to significantly attenuate”. The “effect on 0.6% acetic acid-induced writhing (in words)” value [6] was “dose-dependently decreased”, the EC50 [8] was 169 ± 39.8 nM and the “peak response” value [8] was 383.0 ± 33.2%. The “effect on locomotor activity of acetic acid-treated mice (in words)” value [9] was “failed to restore”, the “effect on […] lactic acid-induced writhing (in words)” value [10] was “decreased” and the “effect on locomotor activity of lactic acid-treated mice (in words)” value [11] was “failed to restore”. For the same compound, the EC50 [12] was 261 ± 116 nM and the “peak response” value [12] was 320.0 ± 14.3%.
